Test results as given in US4923986A, “Derivatives of physiologically active substance K-252” (Kyowa Hakko Kogyo Co., Ltd., priority 1988, dated 1990).
≈ marks a conversion by molar mass, not a printed value. Read-outs that look alike come from different tables or passages of the source.

What was measured:
[1] = test system: PC-10 cells; test: PC-10 cell growth inhibition test; format: cell-based; conditions: Homo sapiens, read-out: cell growth inhibitory activity IC50, PC-10
Protocol: (§1) Compound (I) was examined for C-kinase inhibitory activity and cell growth inhibitory activity by the following method.
(§2) MCF 7 cells (4.5×10^4 cells/ml) prepared in RPMI 1640 medium containing 10% fetal calf serum, 10 μg/ml insulin and 10^-8 M estradiol are put into wells of a 96-well microtiter plate in the amount of 0.1 ml per each well. After incubation at 37° C. overnight in CO2 -incubator, 0.05 ml each of a test sample appropriately diluted with the culture medium is added to each well. In the case of contact for 72 hours, the cells are further cultured in CO2 -incubator, and then the culture supernatant is removed and the wells are washed once with PBS(-). Thereafter, 0.1 ml of fresh medium is added to each well, followed by culturing at 37° C. for 72 hours in CO2 -incubator. After the culture supernatant is removed, 0.1 ml of the culture medium containing 0.02% Neutral Red is added to each well, followed by culturing at 37° C. for one hour in CO2 -incubator, whereby the cells are stained. Then, the culture supernatant is removed and the cells are washed once with physiological saline. The pigment is extracted with 0.001N HCl/30% ethanol and absorption is measured at 550 nm with a microplate reader. By comparing the absorption of intact cells with those of the cells treated with a test compound in known concentrations, the concentration of the test compound at which growth of the cells is inhibited 50% is calculated as IC50.
(2) PC-10 cell growth inhibition test:
PC-10 cells (5×10^4 cells/ml) prepared in MEM medium containing 10% fetal calf serum and 2 mM glutamine are put into wells of a 96-well microtiter plate in the amount of 0.1 ml per each well.
Thereafter, the test is carried out in the same manner as in the MCF 7 cell growth inhibition test.

[2] = biological target: C-kinase (protein kinase C); test: C-Kinase inhibitory activity test; format: biochemical; conditions: enzyme activity inhibited 50%
[3] = test system: HeLaS3 cells; test: HeLaS3 cell growth inhibition test; format: cell-based; conditions: Homo sapiens, read-out: cell growth inhibitory activity IC50, HeLaS3
Protocol: as §1, §2
(3) HeLaS3 cell growth inhibition test:
HeLaS3 cells (3×10^4 cells/ml) prepared in MEM medium containing 10% fetal calf serum and 2 mM glutamine are put into wells of a 96-well microtiter plate in the amount of 0.1 ml per each well.
Thereafter, the test is carried out in the same manner as in (1).

[4] = test system: C-kinase; conditions: literature, in words; cited from earlier work
[5] = test system: COLO320DM cells; test: COLO320DM cell growth inhibition test; format: cell-based; conditions: Homo sapiens, COLO 320DM, read-out: cell growth inhibitory activity IC50, COLO320DM
Protocol: as §2, with “After” for “MCF 7 cells (4.5×10^4 cells/ml) prepared in RPMI 1640 medium containing 10% fetal calf serum, 10 μg/ml insulin and 10^-8 M estradiol are put into wells of a 96-well microtiter plate in the amount of 0.1 ml per each well. After”, “reader.” for “reader. By comparing the absorption of intact cells with those of the cells treated with a test compound in known concentrations, the concentration of the test compound at which growth of the cells is inhibited 50% is calculated as IC50.”
(4) COLO320DM cell growth inhibition test:
Thereafter, the test is carried out in the same manner as in (1) except that the cells are counted with a microcell counter.

[6] = test system: MCF 7 cells; test: MCF 7 cell growth inhibition test; format: cell-based; conditions: Homo sapiens, read-out: cell growth inhibitory activity IC50, MCF-7
Protocol: as §1
(1) MCF 7 cell growth inhibition test:
as §2

[7] = PC10, PC-10 cells, contact for 72 hours
[8] = HeLa S3, HeLaS3 cells, contact for 72 hours
[9] = COLO320DM cells, cells counted with a microcell counter
[10] = MCF7, MCF-7 cells, contact for 72 hours

SMILES: COC(=O)[C@@]1(O)C[C@H]2O[C@]1(C)n1c3ccccc3c3c4c(c5c6ccccc6n2c5c31)C(=O)N(Cl)C4 (relative stereo) [Compound 5]
- IC50 [1, 7]: 0.84 µg/mL (≈ 1.67 µM)
- C-Kinase inhibitory activity IC50 [2]: 0.034 µg/mL
- IC50 [3, 8]: 0.51 µg/mL (≈ 1.02 µM)

SMILES: CN(C)CCCN1c2ccccc2Sc2ccc(Cl)cc21 [chlorpromazine]
- C-kinase inhibitory activity [4]: low

SMILES: ClCCN(Cc1ccccc1)Cc1ccccc1 [dibenamine]
- C-kinase inhibitory activity [4]: low

SMILES: CC12OC(CC1O)n1c3ccccc3c3c4c(c5c6ccccc6n2c5c31)CNC4=O (stereo not drawn) [Compound 48]
- IC50 ([1]; PC10, 72 h): 0.48 µg/mL (≈ 1.17 µM)
- C-Kinase inhibitory activity IC50 [2]: 0.022 µg/mL
- IC50 ([3]; HeLa S3, 72 h): 0.72 µg/mL (≈ 1.76 µM)

SMILES: C[C@]12O[C@H](C[C@]1(O)CO)n1c3ccccc3c3c4c(c5c6ccccc6n2c5c31)CNC4=O (relative stereo) [Compound 20]
- IC50 [5]: 0.05 µg/mL (≈ 0.114 µM)
- IC50 ([1]; PC10, 72 h): 0.11 µg/mL (≈ 0.25 µM)
- C-Kinase inhibitory activity IC50 [2]: 0.02 µg/mL
- IC50 ([6]; MCF7, 72 h): 0.55 µg/mL (≈ 1.25 µM)
- IC50 ([3]; HeLa S3, 72 h): 0.07 µg/mL (≈ 0.159 µM)

SMILES: COC(=O)[C@@]1(O)C[C@H]2O[C@]1(C)n1c3ccccc3c3c4c(c5c6cc(Br)ccc6n2c5c31)C(=O)NC4 (relative stereo) [Compound 7]
- IC50 [1, 7]: 0.76 µg/mL (≈ 1.39 µM)
- C-Kinase inhibitory activity IC50 [2]: 0.028 µg/mL
- IC50 [3, 8]: 0.15 µg/mL (≈ 0.275 µM)

SMILES: COC(=O)[C@@]1(O)C[C@H]2O[C@]1(C)n1c3ccccc3c3c4c(c5c6cc(N)ccc6n2c5c31)C(=O)NC4 (relative stereo) [Compound 9]
- IC50 [5, 9]: 0.05 µg/mL (≈ 0.104 µM)
- C-Kinase inhibitory activity IC50 [2]: 0.175 µg/mL
- IC50 [6, 10]: 0.13 µg/mL (≈ 0.269 µM)
- IC50 [3, 8]: 0.01 µg/mL (≈ 0.0207 µM)

SMILES: CCOC(=O)[C@@]1(O)C[C@H]2O[C@]1(C)n1c3ccccc3c3c4c(c5c6ccccc6n2c5c31)C(=O)NC4 (relative stereo) [Compound 4]
- IC50 [1, 7]: > 1 µg/mL
- C-Kinase inhibitory activity IC50 [2]: 0.13 µg/mL
- IC50 [3, 8]: 0.6 µg/mL (≈ 1.25 µM)

SMILES: COC(=O)[C@@]1(O)C[C@H]2O[C@]1(C)n1c3ccccc3c3c4c(c5c6cc(O)ccc6n2c5c31)C(=O)NC4 (relative stereo) [Compound 15]
- IC50 ([1]; PC10, 72 h): 0.11 µg/mL (≈ 0.228 µM)
- C-Kinase inhibitory activity IC50 [2]: 0.009 µg/mL
- IC50 ([3]; HeLa S3, 72 h): 0.48 µg/mL (≈ 0.993 µM)

SMILES: C[S+]([O-])CC1(O)CC2OC1(C)n1c3ccccc3c3c4c(c5c6ccccc6n2c5c31)C(=O)NC4 (stereo not drawn) [Compound 46]
- IC50 [1, 7]: 0.27 µg/mL (≈ 0.556 µM)
- C-Kinase inhibitory activity IC50 [2]: 0.06 µg/mL
- IC50 [3, 8]: > 1 µg/mL

SMILES: C[C@]12O[C@H](C[C@]1(O)CN)n1c3ccccc3c3c4c(c5c6ccccc6n2c5c31)CNC4=O (relative stereo) [Compound 30]
- IC50 [1, 7]: 0.04 µg/mL (≈ 0.0912 µM)
- C-Kinase inhibitory activity IC50 [2]: 0.015 µg/mL
- IC50 [3, 8]: 0.07 µg/mL (≈ 0.16 µM)

SMILES: CC12OC(CC13COC(=S)O3)n1c3ccccc3c3c4c(c5c6ccccc6n2c5c31)CNC4=O (stereo not drawn) [Compound 54]
- IC50 [5, 9]: 0.08 µg/mL (≈ 0.166 µM)
- IC50 [1, 7]: 0.11 µg/mL (≈ 0.228 µM)
- C-Kinase inhibitory activity IC50 [2]: 0.015 µg/mL
- IC50 [6, 10]: 1 µg/mL (≈ 2.08 µM)
- IC50 [3, 8]: 0.28 µg/mL (≈ 0.581 µM)

SMILES: CC12OC(CC13CNC(=O)O3)n1c3ccccc3c3c4c(c5c6ccccc6n2c5c31)CNC4=O (stereo not drawn) [Compound 57]
- IC50 [5, 9]: 0.37 µg/mL (≈ 0.797 µM)
- IC50 [1, 7]: 0.1 µg/mL (≈ 0.215 µM)
- C-Kinase inhibitory activity IC50 [2]: 0.02 µg/mL
- IC50 [6, 10]: 0.15 µg/mL (≈ 0.323 µM)
- IC50 [3, 8]: 0.04 µg/mL (≈ 0.0861 µM)

SMILES: C[C@]12O[C@H](C[C@]1(O)C(=O)NCCO)n1c3ccccc3c3c4c(c5c6ccccc6n2c5c31)CNC4=O (relative stereo) [Compound 3]
- IC50 [1, 7]: 0.68 µg/mL (≈ 1.37 µM)
- C-Kinase inhibitory activity IC50 [2]: 0.018 µg/mL
- IC50 [3, 8]: 0.95 µg/mL (≈ 1.91 µM)

SMILES: C[C@]12O[C@H](C[C@]1(O)CO)n1c3ccc(N)cc3c3c4c(c5c6ccccc6n2c5c31)CNC4=O (relative stereo) [Compound 23]
- IC50 [5, 9]: 0.22 µg/mL (≈ 0.484 µM)
- C-Kinase inhibitory activity IC50 [2]: 0.038 µg/mL
- IC50 [6, 10]: 0.34 µg/mL (≈ 0.748 µM)
- IC50 [3, 8]: 0.15 µg/mL (≈ 0.33 µM)

SMILES: CSCC1(O)CC2OC1(C)n1c3ccccc3c3c4c(c5c6ccccc6n2c5c31)C(=O)NC4 (stereo not drawn) [Compound 45]
- IC50 [1, 7]: > 1 µg/mL
- C-Kinase inhibitory activity IC50 [2]: 0.11 µg/mL
- IC50 [3, 8]: 0.55 µg/mL (≈ 1.17 µM)

SMILES: C[C@]12O[C@H](C[C@]1(O)COC(=O)CCC(=O)O)n1c3ccccc3c3c4c(c5c6ccccc6n2c5c31)CNC4=O (relative stereo) [Compound 27]
- IC50 [5, 9]: > 1 µg/mL
- C-Kinase inhibitory activity IC50 [2]: 0.017 µg/mL
- IC50 [6, 10]: > 1 µg/mL
- IC50 [3, 8]: 0.53 µg/mL (≈ 0.982 µM)

SMILES: C[C@]12O[C@H](C[C@]1(O)C(N)=O)n1c3ccccc3c3c4c(c5c6ccccc6n2c5c31)CNC4=O (relative stereo) [Compound 2]
- IC50 [1, 7]: 0.03 µg/mL (≈ 0.0663 µM)
- C-Kinase inhibitory activity IC50 [2]: 0.003 µg/mL
- IC50 [3, 8]: 0.22 µg/mL (≈ 0.486 µM)

SMILES: C[C@]12O[C@H](C[C@]1(O)CN=[N+]=[N-])n1c3ccccc3c3c4c(c5c6ccccc6n2c5c31)CNC4=O (relative stereo) [Compound 29]
- IC50 [1, 7]: 0.71 µg/mL (≈ 1.53 µM)
- C-Kinase inhibitory activity IC50 [2]: 0.06 µg/mL
- IC50 [3, 8]: 0.44 µg/mL (≈ 0.947 µM)

SMILES: CC12OC(CC13CN(CC=NNC(=N)N)C(=O)O3)n1c3ccccc3c3c4c(c5c6ccccc6n2c5c31)CNC4=O (stereo not drawn) [Compound 63]
- IC50 [5, 9]: 0.64 µg/mL (≈ 1.14 µM)
- C-Kinase inhibitory activity IC50 [2]: 0.053 µg/mL
- IC50 [6, 10]: 0.45 µg/mL (≈ 0.8 µM)
- IC50 [3, 8]: 0.2 µg/mL (≈ 0.355 µM)

SMILES: CC12OC(CC13CO3)n1c3ccccc3c3c4c(c5c6ccccc6n2c5c31)CNC4=O (stereo not drawn) [Compound 36]
- IC50 [5, 9]: 0.12 µg/mL (≈ 0.285 µM)
- C-Kinase inhibitory activity IC50 [2]: 0.02 µg/mL
- IC50 [6, 10]: 0.52 µg/mL (≈ 1.23 µM)
- IC50 [3, 8]: 0.08 µg/mL (≈ 0.19 µM)

SMILES: C[C@]12O[C@H](C[C@]1(O)CO)n1c3ccc(O)cc3c3c4c(c5c6ccccc6n2c5c31)CNC4=O (relative stereo) [Compound 21]
- IC50 [5, 9]: 0.29 µg/mL (≈ 0.637 µM)
- C-Kinase inhibitory activity IC50 [2]: 0.01 µg/mL
- IC50 [6, 10]: 0.76 µg/mL (≈ 1.67 µM)
- IC50 [3, 8]: 0.46 µg/mL (≈ 1.01 µM)

SMILES: CC12OC(CC1(O)CO)n1c3ccccc3c3c4c(c5c6ccccc6n2c5c31)C(=O)N(N)C4=O (stereo not drawn) [Compound 72]
- IC50 [5, 9]: 0.37 µg/mL (≈ 0.79 µM)
- C-Kinase inhibitory activity IC50 [2]: 0.22 µg/mL
- IC50 [6, 10]: 0.2 µg/mL (≈ 0.427 µM)
- IC50 [3, 8]: 0.24 µg/mL (≈ 0.512 µM)

SMILES: CC12OC(CC13CNC(=S)O3)n1c3ccccc3c3c4c(c5c6ccccc6n2c5c31)CNC4=O (stereo not drawn) [Compound 58]
- IC50 [1, 7]: 0.69 µg/mL (≈ 1.44 µM)
- C-Kinase inhibitory activity IC50 [2]: 0.017 µg/mL
- IC50 [3, 8]: 0.28 µg/mL (≈ 0.583 µM)

SMILES: CC12OC(CC13COS(=O)O3)n1c3ccccc3c3c4c(c5c6ccccc6n2c5c31)CNC4=O (stereo not drawn) [Compound 55]
- IC50 [1, 7]: 0.64 µg/mL (≈ 1.32 µM)
- C-Kinase inhibitory activity IC50 [2]: 0.038 µg/mL
- IC50 [3, 8]: 0.14 µg/mL (≈ 0.288 µM)

SMILES: C[C@]12O[C@H](C[C@]1(O)C(=O)NO)n1c3ccccc3c3c4c(c5c6ccccc6n2c5c31)CNC4=O (relative stereo) [Compound 1]
- IC50 [1, 7]: 0.14 µg/mL (≈ 0.299 µM)
- C-Kinase inhibitory activity IC50 [2]: 0.005 µg/mL
- IC50 [3, 8]: 0.59 µg/mL (≈ 1.26 µM)
